ChEMBL document CHEMBL3046675, “Synthesis and Octopaminergic-Agonist Activity of 2-(Arylimino)oxazolidines and 2-(Substituted Benzylamino)-2-oxazolines” (J Pestic Sci, 1996)

T1: Octopamine receptor (Periplaneta americana) (UniProt Q7YWB7)
T1 sequence (whole entry): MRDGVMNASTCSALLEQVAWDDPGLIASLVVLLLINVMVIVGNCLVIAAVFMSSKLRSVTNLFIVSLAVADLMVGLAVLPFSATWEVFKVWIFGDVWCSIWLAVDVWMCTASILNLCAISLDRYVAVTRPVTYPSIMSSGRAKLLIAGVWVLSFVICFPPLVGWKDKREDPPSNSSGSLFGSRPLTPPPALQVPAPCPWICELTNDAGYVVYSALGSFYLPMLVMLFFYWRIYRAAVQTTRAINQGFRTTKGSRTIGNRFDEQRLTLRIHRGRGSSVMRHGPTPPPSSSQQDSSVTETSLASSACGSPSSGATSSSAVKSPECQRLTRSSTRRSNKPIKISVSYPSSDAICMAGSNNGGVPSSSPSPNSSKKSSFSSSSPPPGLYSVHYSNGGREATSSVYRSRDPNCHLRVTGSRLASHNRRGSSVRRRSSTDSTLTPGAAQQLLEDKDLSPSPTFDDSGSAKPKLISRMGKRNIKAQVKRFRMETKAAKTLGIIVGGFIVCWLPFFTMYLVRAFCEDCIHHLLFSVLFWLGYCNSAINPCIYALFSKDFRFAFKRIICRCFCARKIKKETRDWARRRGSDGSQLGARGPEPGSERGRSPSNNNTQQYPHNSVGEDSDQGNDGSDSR


Tests used:
[1] = target: T1, Octopamine receptor (Periplaneta americana); experiment: Agonist activity at Periplaneta americana (American cockroach) thoracic nerve cord octopaminergic receptor assessed as induction of adenylate cyclase-mediated cAMP production per mg protein at 100 uM by radioimmunoassay relative to octopamine
[2] = target: T1, Octopamine receptor (Periplaneta americana); experiment: Agonist activity at Periplaneta americana (American cockroach) thoracic nerve cord octopaminergic receptor assessed as induction of adenylate cyclase-mediated cAMP production per mg protein at 100 uM by radioimmunoassay
[3] = target: T1, Octopamine receptor (Periplaneta americana); experiment: Agonist activity at Periplaneta americana (American cockroach) thoracic nerve cord octopaminergic receptor assessed as induction of adenylate cyclase-mediated cAMP production per mg protein by radioimmunoassay
[4] = target: T1, Octopamine receptor (Periplaneta americana); experiment: Agonist activity at Periplaneta americana (American cockroach) thoracic nerve cord octopaminergic receptor assessed as induction of adenylate cyclase-mediated cAMP production per mg protein at 10 uM by radioimmunoassay
[5] = target: T1, Octopamine receptor (Periplaneta americana); experiment: Agonist activity at Periplaneta americana (American cockroach) thoracic nerve cord octopaminergic receptor assessed as induction of adenylate cyclase-mediated cAMP production per mg protein at 10 uM by radioimmunoassay relative to octopamine
[6] = substrate: Clc1ccc(CNC2=NCCO2)cc1Cl; experiment: (§1) Agonist activity at Periplaneta americana (American cockroach) thoracic nerve cord octopaminergic receptor assessed as induction of adenylate cyclase-mediated cAMP production per mg protein by radioimmunoassay relative to octopamine
[7] = substrate: Clc1ccc(CNC2=NCCS2)cc1Cl; experiment: as §1
[8] = substrate: CCc1cccc(CC)c1/N=C1/NCCO1; experiment: as §1

Row | Molecule | max activation [1] [%] | Activity [2] [pmol/min] | also measured
1 | Fc1ccc(F)c(/N=C2/NCCO2)c1 | -7.7 | 70.3 | 
2 | FC(F)(F)c1ccccc1CNC1=NCCO1 | 5.1 | 137 | 
3 | COc1cccc(CNC2=NCCO2)c1 | -3.6 | 91.5 | 
4 | Fc1cc(F)c(/N=C2/NCCO2)c(F)c1 | 2.5 | 123 | 
5 | Cc1cc(Br)ccc1/N=C1/NCCO1 | 19.9 | 214 | Ka [3]: 0.19 µM
6 | Cc1cc(Cl)ccc1/N=C1/NCCO1 | 17.9 | 204 | Ka [3]: 0.18 µM
7 | FC(F)(F)c1cccc(CNC2=NCCO2)c1 | 17.2 | 200 | 
8 | COc1ccc(CNC2=NCCO2)cc1 | 17 | 199 | 
9 | NCC(O)c1ccc(O)cc1 (stereo not given) |  | 630 | Ka [3]: 7.6 µM
10 | FC(F)(F)c1ccc(C(F)(F)F)c(/N=C2/NCCO2)c1 | -4.2 | 88.3 | 
11 | CCc1cccc(CC)c1/N=C1/NCCO1 | 49 | 365 | Ka [3]: 0.44 µM
12 | COc1ccccc1CNC1=NCCO1 | 6.9 | 146 | 
13 | Clc1ccc(CNC2=NCCO2)c(Cl)c1 | 11.8 | 172 | 
14 | CCc1ccccc1/N=C1/NCCO1 | -5 | 84.1 | 
15 | FC(F)(F)c1ccc(CNC2=NCCO2)cc1 | 7 | 147 | 
16 | Fc1ccccc1CNC1=NCCO1 | 14.2 | 184 | 
17 | Clc1cc(Br)ccc1/N=C1/NCCO1 | -8.4 | 66.4 | 
18 | Cc1ccc(CNC2=NCCO2)cc1 | 35.2 | 293 | 
19 | COc1ccc(CNC2=NCCO2)c(OC)c1 | 9.8 | 161 | 
20 | Cc1cccc(CNC2=NCCO2)c1 | 9.2 | 158 | 

Row | Molecule | max activation [1] [%] | Activity [2] [pmol/min] | also measured
21 | Clc1ccc(CNC2=NCCO2)cc1Cl | 13.5 | 180 | Ka [3]: 2.3 µM
22 | Clc1cccc(CNC2=NCCO2)c1 |  |  | Ka [3]: 0.16 µM; Activity [4]: 252 pmol/min; Activity [5]: 27.2%
23 | Fc1ccc(CNC2=NCCO2)cc1 | 11.2 | 168 | 
24 | CCc1cccc(CC)c1NC1=NCCN1 |  |  | Ka [3]: 0.44 µM
25 | Fc1cccc(F)c1/N=C1/NCCO1 | -0.3 | 109 | 
26 | FC(F)(F)c1ccc(/N=C2/NCCO2)cc1 | 6.6 | 145 | 
27 | Clc1cccc(/N=C2/NCCO2)c1Cl | 2 | 121 | 
28 | Brc1ccccc1CNC1=NCCO1 | 10.4 | 164 | 
29 | O=[N+]([O-])c1cccc(CNC2=NCCO2)c1 | 18.4 | 206 | 
30 | COc1cc(/N=C2/NCCO2)cc(OC)c1OC | -9.4 | 61.2 | 
31 | Fc1ccc(F)c(CNC2=NCCO2)c1 | 19.3 | 211 | 
32 | Clc1ccc(/N=C2/NCCO2)c(Cl)c1Cl | 15.1 | 189 | 
33 | Clc1ccccc1CNC1=NCCO1 | 17.4 | 200 | 
34 | Clc1cccc(/N=C2/NCCO2)c1 | 0.2 | 111 | 
35 | COc1cccc(CNC2=NCCO2)c1OC | 8.9 | 157 | 
36 | Clc1ccc(CNC2=NCCO2)cc1 | 31.7 | 275 | 
37 | Clc1ccc(CNC2=NCCS2)cc1Cl |  |  | Ka [3]: 0.4 µM
38 | Brc1cc(Br)c(/N=C2/NCCO2)c(Br)c1 | -4.4 | 87.4 | 
39 | CCc1ccc(/N=C2/NCCO2)cc1 | 11.5 | 170 | Ka [3]: 36 µM
40 | Octopamine receptor (Periplaneta americana), Q7YWB7 (protein) MRDGVMNASTCSALLEQVAWDDPGLIASLVVLLLINVMVIVGNCLVIAAVFMSSKLRSVTNLFIVSLAVADLMVGLAVLPFSATWEVFKVWIFGDVWCSIWLAVDVWMCTASILNLCAISLDRYVAVTRPVTYPSIMSSGRAKLLIAGVWVLSFVICFPPLVGWKDKREDPPSNSSGSLFGSRPLTPPPALQVPAPCPWICELTNDAGYVVYSALGSFYLPMLVMLFFYWRIYRAAVQTTRAINQGFRTTKGSRTIGNRFDEQRLTLRIHRGRGSSVMRHGPTPPPSSSQQDSSVTETSLASSACGSPSSGATSSSAVKSPECQRLTRSSTRRSNKPIKISVSYPSSDAICMAGSNNGGVPSSSPSPNSSKKSSFSSSSPPPGLYSVHYSNGGREATSSVYRSRDPNCHLRVTGSRLASHNRRGSSVRRRSSTDSTLTPGAAQQLLEDKDLSPSPTFDDSGSAKPKLISRMGKRNIKAQVKRFRMETKAAKTLGIIVGGFIVCWLPFFTMYLVRAFCEDCIHHLLFSVLFWLGYCNSAINPCIYALFSKDFRFAFKRIICRCFCARKIKKETRDWARRRGSDGSQLGARGPEPGSERGRSPSNNNTQQYPHNSVGEDSDQGNDGSDSR |  |  | Vmax [6]: 29%; Vmax [7]: 53%; Vmax [8]: 58%
